Values quoted from earlier work in patent US20240108682A1, “COMPOSITIONS AND METHODS FOR INCREASING GLUTATHIONE LEVELS” (Lile Method Research, LLC, priority 2022, published 2024).

Settings: Lu SC, Curr Top Cell Regul 36:95-116 (2000)

N[C@@H](CCC(=O)N[C@@H](CS)C(=O)NCC(=O)O)C(=O)O [glutathione, L-γ-glutamyl-L-cysteinylglycine]
half-life of glutathione in the blood: seconds to minutes
